In brackets after ≈: the same amount, converted by molar mass. Read-outs that look alike come from different tables or passages of the source. No end group written: not given here.

These results are taken from paper PMC9744894, “An optimized antimicrobial peptide analog acts as an antibiotic adjuvant to reverse methicillin-resistant Staphylococcus aureus” (NPJ Science of Food, 2022).

Data set [1] concerns MRSA (ATCC 43300). Nature of the data set: Killing kinetics / growth inhibition. The class given is cell-based, Staphylococcus aureus. To be noted: PIS-A-1 1/4 MIC or APC 1/8 MIC alone; OD600, 37 °C. The method, then:
Likewise, the killing kinetics of antimicrobial agents against bacteria was tested. Briefly, 100 μL of antimicrobial agents were diluted two-fold in 96-well plates. Then, 100 μL of bacterial inoculum (1.5 × 10^6 CFU mL^−1) was appended and incubated at 37 °C. At a fixed time, the OD600 value of each well in the plate was measured by using a microplate reader (SpectraMax i3, Molecular Devices, USA).

The subject of data set [2] is methicillin-resistant Staphylococcus aureus ATCC 43300. The data set is described as follows: microbe, parasite or virus in culture. To be noted: ATCC43300 / MRSA, 18 h.
The test system is the same in data set [3].
Data set [4] relates to Shigella flexneri CMCC 51572. As to conditions: MHB, 37 °C, 18 h. The method, then: (§1) The minimum inhibitory concentration (MIC) was adopted to measure the antimicrobial spectrum of AMPs[42]. Specifically, experiments were executed by broth microdilution method in a 96-well plate (Corning) with an initial inoculum of 1.5 × 10^6 Colony-Forming units (CFU) mL^−1 in MHB based on Clinical and Laboratory Standards Institute (CLSI) guidelines. Inoculums were bacteria in the Mid-Logarithmic phase. To prevent edge effects, 96-well plates were placed in a constant temperature incubator (TSQ-280, Jianuo, China) at 37 °C. After 18 h of incubation, a microplate reader (SpectraMax i3, Molecular Devices, USA) was applied to determine the OD600 value of the plates. […] Simultaneously, the number of inactivated bacteria treated with different drugs was quantitatively determined by flow cytometry (BD Accuri C6 Plus, USA) combined with […] propidium iodide (PI, Thermo Fisher Scientific, USA)[43].

Data set [5] has as its system Salmonella enterica CMCC 50335. To be noted: MHB, 37 °C, 18 h. The method, then:
as §1

Data set [6] relates to Shigella flexneri CMCC 51571. As to conditions: MHB, 37 °C, 18 h. The method, then:
as §1

For data set [7], the system named is Shigella sonnei CMCC 51592. To be noted: MHB, 37 °C, 18 h. The method, then:
as §1

The subject of data set [8] is Staphylococcus aureus CMCC 26003.
Data set [9] relates to MRSA (ATCC 43300). To be noted: chessboard with APC, MRSA ATCC 43300, 18 h; synergy defined as FIC index ≤ 0.5.
For data set [10], the system named is Shigalla Dysenteria CMCC 51252. To be noted: CMCC 51252, 18 h.
The test system of data set [11] is Escherichia coli ATCC 8739.
Data set [12] relates to Staphylococcus aureus ATCC 29213.
In data set [13] the test system is Bacillus cereus CMCC 63301.
Data set [14] has as its system Staphylococcus aureus ATCC 12600.
Data set [15] deals with Escherichia coli CMCC44102.
Data set [16] deals with Staphylococcus aureus ATCC 6538.
For data set [17], the system named is Escherichia coli CMCC 44817.
Data set [18] concerns Bacillus pumilus CMCC 63202.
For another data set, the system named is Caco-2 cells. Nature of the data set: Cytotoxicity, MTT assay. To be noted: Caco-2, MTT; 64 μg/mL (concentration for PIS-1 and PIS-3 implied by context); mean ± SD, n = 3. The method, then: Caco-2 cells cultured with RPMI 1640 medium (containing 10% FBS and 1% penicillin-streptomycin) were incubated in a humidified CO2 (5%) atmosphere. Next, trypsin-treated cells (0.25%) were seeded in 96-well plates at a density of 5,000 per well and incubated for 24 h. Finally, cell viability of each well with fresh medium was tested by MTT assay.
(In general: Formazan colour is commonly taken as a measure of viable cells.)

The next data set relates to mouse blood cells. The class given is cell-based, mice. The method, then:
Blood cells taken from mice (ICR, male, 30–35 g) were treated with different concentrations of AMPs for 1 h. Meanwhile, Triton X-100 (0.2%) and phosphate-buffered saline (PBS, 0.01 moL^−1, pH 7.4) were used as positive and negative controls, respectively. After the reaction was completed, the OD576 value of each tube sample was determined and the hemolysis rate was calculated using the formula below[44],[45]:1 Hemolysisrate(%)=[(OD576sample−OD576blank)/(OD576TritonX−100−OD576blank)]×100%

In data set [19] the test system is pepsin, papain, and trypsin. The class given is in vitro ADME. As to conditions: pH 7.4. The method, then:
AMPs were exposed to proteases (including pepsin, papain, and trypsin) dissolved in PBS (pH 7.4) at 37 °C for 12 h. Subsequently, proteases in AMPs were inactivated by high-temperature treatment (95 °C, 5 min) and the activity of treated AMPs against MRSA (ATCC 43300) was determined. AMPs dissolved in PBS without proteases were used as controls.

Take `CC1(C)S[C@@H]2[C@H](NC(=O)[C@H](N)c3ccccc3)C(=O)N2[C@H]1C(=O)O` [APC, Ampicillin]: the “bactericidal activity in growth inhibition experiment, applied separately” value in the data set on MRSA (ATCC 43300) [1] is reported as “no bactericidal activity”. Also, the MIC in data set [2] was found to be 16 µg/mL (≈ 45.8 µM).

`CN[C@H](CC(C)C)C(=O)N[C@H]1C(=O)N[C@@H](CC(N)=O)C(=O)N[C@H]2C(=O)N[C@H]3C(=O)N[C@H](C(=O)N[C@H](C(=O)O)c4cc(O)cc(O)c4-c4cc3ccc4O)[C@H](O)c3ccc(c(Cl)c3)Oc3cc2cc(c3O[C@@H]2O[C@H](CO)[C@@H](O)[C@H](O)[C@H]2O[C@H]2C[C@](C)(N)[C@H](O)[C@H](C)O2)Oc2ccc(cc2Cl)[C@H]1O` [VAN, vancomycin] displayed an MIC in data set [2] of 0.25 µg/mL (≈ 0.173 µM).

For “FFHHIFRGIVHVGKTIHRLVTG [PIS-1] [listing 1 of 2 here]”, the MIC against MRSA N315 (MRSA N315, MHB, 37 °C, 18 h) was 8 µg/mL; in [3] (MRSA ATCC 43300, broth microdilution in MHB, 1.5 × 10^6 CFU mL^−1, 37 °C, 18 h, OD600), 16 µg/mL; in data set [4], 8 µg/mL; in data set [5], 16 µg/mL; in data set [6], 8 µg/mL; in data set [7], 8 µg/mL. In addition, the MIC in data set [8] (Staphylococcus aureus CMCC 26003, MHB, 37 °C, 18 h) came to 16 µg/mL; in [10], 16 µg/mL; in [11] (Escherichia coli ATCC 8739, first listing in Supplementary table 1, MHB, 37 °C, 18 h) it was 8 µg/mL; in [11] (Escherichia coli ATCC 8739, second listing in Supplementary table 1, MHB, 37 °C, 18 h), 8 µg/mL; in [12] (Staphylococcus aureus ATCC 29213, MHB, 37 °C, 18 h), 8 µg/mL; in [13] (Bacillus cereus CMCC 63301, MHB, 37 °C, 18 h), 16 µg/mL. Moreover, the MIC in data set [14] (Staphylococcus aureus ATCC 12600, MHB, 37 °C, 18 h) amounted to 8 µg/mL; in data set [15] (Escherichia coli CMCC44102, first listing in Supplementary table 1, MHB, 37 °C, 18 h) it was 16 µg/mL; in data set [15] (Escherichia coli CMCC 44102, second listing in Supplementary table 1, MHB, 37 °C, 18 h) it was 4 µg/mL; in data set [16] (Staphylococcus aureus ATCC 6538, MHB, 37 °C, 18 h) it was 8 µg/mL; in data set [17] (Escherichia coli CMCC 44817, MHB, 37 °C, 18 h), 16 µg/mL; in [18] (Bacillus pumilus CMCC 63202, MHB, 37 °C, 18 h), 16 µg/mL. Besides, the “FIC (FIC index) with APC” value with MRSA (ATCC 43300) [9] is 0.31. In the data set on Staphylococcus aureus (range over Staphylococcus aureus strains), the “MIC against Staphylococcus aureus” value is listed as 8~16 μg/mL.

In the case of “FFHHIFRGIVHVGKTIHRLVTG [PIS-1] [listing 2 of 2 here]”, the cell viability (commonly the share of living cells, or the viability signal relative to a control) in the data set with Caco-2 cells is given as 3.64 ± 0.79%.

Turning to FIHHIFRGIVHAG [PIS-A-5], the MIC in data set [3] (ATCC 43300, 18 h) was not below 64 µg/mL.

As for FIHHIFRGIVHAGRSIGRFLTG [PIS-3], the MIC with MRSA N315 (N315, 18 h) was 16 µg/mL; in [3] (ATCC 43300, 18 h), 32 µg/mL; in data set [8] (CMCC 26003, 18 h), 32 µg/mL; in data set [10] it was 32 µg/mL; in data set [11] (ATCC 8739, 18 h), 8 µg/mL; in [12] (ATCC 29213, 18 h), 16 µg/mL. Moreover, the MIC was determined as 16 µg/mL in [13] (CMCC 63301, 18 h); 16 µg/mL in data set [14] (ATCC 12600, 18 h); 16 µg/mL in data set [15] (CMCC44102, 18 h); 16 µg/mL in data set [16] (ATCC 6538, 18 h); 16 µg/mL in data set [17] (CMCC 44817, 18 h); 16 µg/mL in data set [18] (CMCC 63202, 18 h).

The molecule FIHHIFRGIVHLGRSIGRFLTG [PIS-A-2] gave an MIC in data set [3] (ATCC 43300, 18 h) of 16 µg/mL.

The molecule FIHHIFRGIVHVGRS [PIS-A-4] gave an MIC in [3] (ATCC 43300, 18 h) of 32 µg/mL.

FIHHIFRGIVHVGRSIG [PIS-A-3] returned an MIC in [3] (ATCC 43300, 18 h) of 32 µg/mL.

With FIHHIFRGIVHVGRSIGRFLTG [PIS-A-1], the MIC with MRSA N315 (N315, 18 h) came out at 8 µg/mL; in [3] (ATCC 43300, 18 h), 8 µg/mL; in data set [4] it was 16 µg/mL; in [5], 16 µg/mL; in data set [6], 8 µg/mL; in data set [7] it was 16 µg/mL. Further, the MIC in [8] (CMCC 26003, 18 h) was found to be 16 µg/mL; in data set [10] it was 16 µg/mL; in data set [11] (ATCC 8739, 18 h), 8 µg/mL; in [12] (ATCC 29213, 18 h), 8 µg/mL; in data set [13] (CMCC 63301, 18 h) it was 8 µg/mL; in [14] (ATCC 12600, 18 h), 8 µg/mL. The MIC worked out at 8 µg/mL in [16] (ATCC 6538, 18 h); 16 µg/mL in data set [17] (CMCC 44817, 18 h); 16 µg/mL in [18] (CMCC 63202, 18 h). In the data set on MRSA (ATCC 43300) [9], the “FIC (FIC index) with APC” value was 0.19. Further, the “hemolysis at its MIC” value with mouse blood cells is recorded as “did not induce minimal hemolysis”. Moreover, the “HC50 (minimum AMP concentration producing 50% hemolysis of red blood cells)” value with mouse blood cells (red cells of mouse, 1 h) stood at 64 µg/mL. Also, the “resistance to enzymatic degradation (change of MIC against MRSA after protease treatment)” value in data set [19] was “least affected by enzymatic degradation”. Further, the “MIC against Staphylococcus aureus” value in the data set with Staphylococcus aureus (18 h) is 8~16 μg/mL.

Consider GIVHAG [PIS-A-6], for which the MIC in data set [3] (ATCC 43300, 18 h) was not below 64 µg/mL.

For GIVHAGRSIGRFLTG [PIS-A-7], the MIC in data set [3] (ATCC 43300, 18 h) was not below 64 µg/mL.
